In US20230295200A1 (REGENTS OF THE UNIVERSITY OF MICHIGAN, priority 2022, published 2023):
pKi: −log10 of the molar value.

Key:
STAT5A = target: T1, STAT5A (Homo sapiens, UniProt P42229); experiment: Fluorescence polarization (FP) binding assay, STAT5A; details: FP competition, 5 nM fluorescein-labeled tracer, 200 nM protein, PBS pH7.4
T1 sequence (P42229 1-794): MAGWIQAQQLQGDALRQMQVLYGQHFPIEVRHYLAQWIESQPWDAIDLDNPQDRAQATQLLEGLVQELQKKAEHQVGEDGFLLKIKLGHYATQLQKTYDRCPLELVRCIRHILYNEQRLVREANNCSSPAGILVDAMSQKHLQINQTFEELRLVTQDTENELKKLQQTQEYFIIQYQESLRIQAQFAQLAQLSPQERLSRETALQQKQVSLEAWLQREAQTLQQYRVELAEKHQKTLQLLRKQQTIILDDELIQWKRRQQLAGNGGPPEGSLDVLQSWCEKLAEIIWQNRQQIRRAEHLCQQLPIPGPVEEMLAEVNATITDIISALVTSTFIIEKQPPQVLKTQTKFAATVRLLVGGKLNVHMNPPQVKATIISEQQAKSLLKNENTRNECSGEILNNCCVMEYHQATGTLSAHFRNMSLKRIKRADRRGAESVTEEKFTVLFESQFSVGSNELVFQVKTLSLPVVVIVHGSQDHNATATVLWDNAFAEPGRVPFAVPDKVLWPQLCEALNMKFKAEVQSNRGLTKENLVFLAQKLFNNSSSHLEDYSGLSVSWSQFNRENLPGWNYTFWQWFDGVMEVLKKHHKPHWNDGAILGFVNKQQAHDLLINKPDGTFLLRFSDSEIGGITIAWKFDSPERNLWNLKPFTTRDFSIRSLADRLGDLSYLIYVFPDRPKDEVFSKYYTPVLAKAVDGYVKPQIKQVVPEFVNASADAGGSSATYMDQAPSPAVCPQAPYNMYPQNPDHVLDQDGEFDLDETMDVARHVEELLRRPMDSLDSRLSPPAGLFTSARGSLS
Procedure, shortened: (§1)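 Polarization of a 5 nM fluorescein tracer bound by 200 nM STAT protein, measured after 1 h room-temperature equilibration in buffered PBS pH 7.4 with DTT, gave inhibition constants via nonlinear curve fitting.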

STAT6 protein = target: T2, STAT6 protein (Homo sapiens, UniProt P42226); experiment: Fluorescence polarization (FP) binding assay, STAT6; details: FP competition, 5 nM fluorescein-labeled tracer, 200 nM protein, PBS pH7.4; read-out: Binding STAT6
T2 sequence (P42226 1-847): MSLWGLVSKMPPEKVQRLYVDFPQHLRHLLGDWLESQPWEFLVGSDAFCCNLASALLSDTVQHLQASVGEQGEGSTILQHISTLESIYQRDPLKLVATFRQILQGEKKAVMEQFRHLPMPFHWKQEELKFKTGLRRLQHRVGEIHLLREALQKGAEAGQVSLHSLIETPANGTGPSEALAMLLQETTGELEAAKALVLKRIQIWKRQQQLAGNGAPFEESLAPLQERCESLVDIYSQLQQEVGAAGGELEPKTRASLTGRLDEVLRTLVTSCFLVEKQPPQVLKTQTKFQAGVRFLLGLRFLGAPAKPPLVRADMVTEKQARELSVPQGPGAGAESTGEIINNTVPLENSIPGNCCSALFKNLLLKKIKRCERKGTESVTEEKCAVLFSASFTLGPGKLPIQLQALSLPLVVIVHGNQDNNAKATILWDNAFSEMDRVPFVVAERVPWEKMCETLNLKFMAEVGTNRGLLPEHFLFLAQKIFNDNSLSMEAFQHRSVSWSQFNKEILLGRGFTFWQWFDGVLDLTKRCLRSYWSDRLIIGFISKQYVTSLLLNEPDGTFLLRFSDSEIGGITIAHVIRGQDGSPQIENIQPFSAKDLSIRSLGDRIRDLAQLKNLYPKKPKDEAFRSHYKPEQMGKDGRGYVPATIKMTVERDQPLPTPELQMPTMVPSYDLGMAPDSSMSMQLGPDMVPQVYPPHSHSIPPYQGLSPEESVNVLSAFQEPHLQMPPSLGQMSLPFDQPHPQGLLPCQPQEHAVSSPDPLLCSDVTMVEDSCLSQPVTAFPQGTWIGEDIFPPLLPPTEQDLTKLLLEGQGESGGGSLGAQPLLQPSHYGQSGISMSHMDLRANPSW
Procedure, shortened: as §1

pKi (STAT5A) | pKi (STAT6 protein) | SMILES
< 5.00 | 5.00 to 6.00 | CC(C)(C)[C@H](NC(=O)c1cc2cc(C(F)(F)P(=O)(O)O)ccc2s1)C(=O)N1CCC[C@H]1C(=O)N1CCOC(c2ccncc2)C1 (stereo partly drawn) [Compound 131, ((2-(((2S)-3,3-dimethyl-1-oxo-1-((2S)-2-(2-(pyridin-4-yl)morpholine-4-carbonyl)pyrrolidin-1-yl)butan-2-yl)carbamoyl)benzo[b]thiophen-5-yl)difluoromethyl)phosphonic acid]
5.00 to 6.00 | 6.00 to 7.00 | CC(C)(C)[C@H](NC(=O)c1cc2cc(C(F)(F)P(=O)(O)O)ccc2s1)C(=O)N1CCC[C@H]1C(=O)Nc1ncc(Cc2ccccc2)s1 [Compound 211, ((2-(((S)-1-((S)-2-((5-benzylthiazol-2-yl)carbamoyl)pyrrolidin-1-yl)-3,3-dimethyl-1-oxobutan-2-yl)carbamoyl)benzo[b]thiophen-5-yl)difluoromethyl)phosphonic acid]
5.00 to 6.00 | 6.00 to 7.00 | CC1COC(c2ccccc2)CN1C(=O)[C@@H]1CCCN1C(=O)[C@@H](NC(=O)c1cc2cc(C(F)(F)P(=O)(O)O)ccc2s1)C(C)(C)C (stereo partly drawn) [Compound 126, ((2-(((2S)-3,3-dimethyl-1-((2S)-2-(5-methyl-2-phenylmorpholine-4-carbonyl)pyrrolidin-1-yl)-1-oxobutan-2-yl)carbamoyl)benzo[b]thiophen-5-yl)difluoromethyl)phosphonic acid]
< 5.00 | 5.00 to 6.00 | CCC[C@H](NC(=O)c1cc2cc(C(F)(F)P(=O)(O)O)ccc2s1)C(=O)N1CCC[C@H]1C(=O)N1CCO[C@@H](c2ccccc2)C1 [Compound 152, (difluoro(2-(((S)-1-oxo-1-((S)-2-((S)-2-phenylmorpholine-4-carbonyl)pyrrolidin-1-yl)pentan-2-yl)carbamoyl)benzo[b]thiophen-5-yl)methyl)phosphonic acid]
< 5.00 | 6.00 to 7.00 | CC(C)(C)[C@H](NC(=O)c1cc2cc(C(F)(F)P(=O)(O)O)ccc2s1)C(=O)N1CCC[C@H]1C(=O)N1CCOC(c2cccnc2)C1 (stereo partly drawn) [Compound 130, ((2-(((2S)-3,3-dimethyl-1-oxo-1-((2S)-2-(2-(pyridin-3-yl)morpholine-4-carbonyl)pyrrolidin-1-yl)butan-2-yl)carbamoyl)benzo[b]thiophen-5-yl)difluoromethyl)phosphonic acid]
< 5.00 | 6.00 to 7.00 | CC(C)(O)[C@H](NC(=O)c1cc2cc(C(F)(F)P(=O)(O)O)ccc2s1)C(=O)N1CCC[C@H]1C(=O)N1CCO[C@H](c2ccccc2)C1 [Compound 149, (difluoro(2-(((S)-3-hydroxy-3-methyl-1-oxo-1-((S)-2-((R)-2-phenylmorpholine-4-carbonyl)pyrrolidin-1-yl)butan-2-yl)carbamoyl)benzo[b]thiophen-5-yl)methyl)phosphonic acid]
5.00 to 6.00 | 6.00 to 7.00 | CC(C)(C)[C@H](NC(=O)c1cc2cc(C(F)(F)P(=O)(O)O)ccc2s1)C(=O)N1CCCCC[C@H]1C(=O)N1CCC[C@H](c2ccccc2)C1 [Compound 184, ((2-(((S)-3,3-dimethyl-1-oxo-1-((S)-2-((R)-3-phenylpiperidine-1-carbonyl)azepan-1-yl)butan-2-yl)carbamoyl)benzo[b]thiophen-5-yl)difluoromethyl)phosphonic acid]
< 5.00 | 6.00 to 7.00 | CC(C)(C)[C@H](NC(=O)c1cc2cc(C(F)(F)P(=O)(O)O)ccc2s1)C(=O)N1CCC[C@H]1C(=O)N1CCOC(c2ccc(F)c(F)c2)C1 (stereo partly drawn) [Compound 111, ((2-(((2S)-1-((2S)-2-(2-(3,4-difluorophenyl)morpholine-4-carbonyl)pyrrolidin-1-yl)-3,3-dimethyl-1-oxobutan-2-yl)carbamoyl)benzo[b]thiophen-5-yl)difluoromethyl)phosphonic acid]

More lines, now with the values behind:

SMILES | pKi (STAT5A) | pKi (STAT6 protein)
CN(C(=O)[C@@H]1CCCN1C(=O)[C@@H](NC(=O)c1cc2cc(C(F)(F)P(=O)(O)O)ccc2[nH]1)C(C)(C)C)C(c1ccccc1)c1ccccc1 [Compound 32, ((2-(((S)-1-((S)-2-(benzhydryl(methyl)carbamoyl)pyrrolidin-1-yl)-3,3-dimethyl-1-oxobutan-2-yl)carbamoyl)-1H-indol-5-yl)difluoromethyl)phosphonic acid] | < 5.00 | < 5.00
CCCCC(=O)N1C[C@@H]2CCN(C(=O)[C@@H]3CCCN3C(=O)[C@@H](NC(=O)c3cc4cc(C(F)(F)P(=O)(O)O)ccc4s3)C(C)(C)C)[C@@H]2C1 [Compound 93, ((2-(((S)-3,3-dimethyl-1-oxo-1-((S)-2-((3aS,6aS)-5-pentanoyloctahydropyrrolo[3,4-b]pyrrole-1-carbonyl)pyrrolidin-1-yl)butan-2-yl)carbamoyl)benzo[b]thiophen-5-yl)difluoromethyl)phosphonic acid] | < 5.00 | < 5.00
CC(C)(C)[C@H](NC(=O)c1cc2cc(C(F)(F)P(=O)(O)O)ccc2s1)C(=O)N1CCC[C@H]1C(=O)N(c1ccccc1)c1ccc(I)cc1 [Compound 39, (difluoro(2-(((S)-1-((S)-2-((4-iodophenyl)(phenyl)carbamoyl)pyrrolidin-1-yl)-3,3-dimethyl-1-oxobutan-2-yl)carbamoyl)benzo[b]thiophen-5-yl)methyl)phosphonic acid] | 5.00 to 6.00 | 6.00 to 7.00
CNC(=O)c1ccc(N(C(=O)[C@@H]2CCCN2C(=O)[C@@H](NC(=O)c2cc3cc(C(F)(F)P(=O)(O)O)ccc3s2)C(C)(C)C)c2ccc(Cl)cc2)cc1 [Compound 44, ((2-(((S)-1-((S)-2-((4-chlorophenyl)(4-(methylcarbamoyl)phenyl)carbamoyl)pyrrolidin-1-yl)-3,3-dimethyl-1-oxobutan-2-yl)carbamoyl)benzo[b]thiophen-5-yl)difluoromethyl)phosphonic acid] | 5.00 to 6.00 | 6.00 to 7.00
CC(=O)N1CCC(C(NC(=O)c2cc3cc(C(F)(F)P(=O)(O)O)ccc3[nH]2)C(=O)N2CCC[C@H]2C(=O)N2CCc3ccccc3C2)CC1 (stereo partly drawn) [Compound 34, ((2-((1-(1-acetylpiperidin-4-yl)-2-oxo-2-((S)-2-(1,2,3,4-tetrahydroisoquinoline-2-carbonyl)pyrrolidin-1-yl)ethyl)carbamoyl)-1H-indol-5-yl)difluoromethyl)phosphonic acid] | < 5.00 | < 5.00
COC(=O)CCN(C(=O)[C@@H]1CCCN1C(=O)[C@@H](NC(=O)c1cc2cc(C(F)(F)P(=O)(O)O)ccc2s1)C(C)(C)C)c1ccc(Br)cc1 [Compound 43] | 6.00 to 7.00 | 6.00 to 7.00
COC(=O)CCN(C(=O)[C@@H]1CCCN1C(=O)[C@@H](NC(=O)c1cc2cc(C(F)(F)P(=O)(O)O)ccc2s1)C(C)(C)C)c1ccccc1 [Compound 38, (difluoro(2-(((S)-1-((S)-2-((3-methoxy-3-oxopropyl)(phenyl)carbamoyl)pyrrolidin-1-yl)-3,3-dimethyl-1-oxobutan-2-yl)carbamoyl)benzo[b]thiophen-5-yl)methyl)phosphonic acid] | 5.00 to 6.00 | 5.00 to 6.00
CC(C)(C)[C@H](NC(=O)c1cc2cc(C(F)(F)P(=O)(O)O)ccc2s1)C(=O)N1CCC[C@H]1C(=O)N1CCCC12CCCC2 [Compound 58, ((2-(((S)-1-((S)-2-(1-azaspiro[4.4]nonane-1-carbonyl)pyrrolidin-1-yl)-3,3-dimethyl-1-oxobutan-2-yl)carbamoyl)benzo[b]thiophen-5-yl)difluoromethyl)phosphonic acid] | < 5.00 | 5.00 to 6.00
